Measured values as given in doi:10.64898/2025.12.10.692519v1 (biorxiv, 2025).

Key:
Assay in all cases: cells
HGC-27 = conditions: Homo sapiens, HGC-27, 144 h, read-out: AB8939
A4573 = conditions: A4573, 144 h, read-out: AB8939
U2OS = conditions: Homo sapiens, U2OS, 144 h, read-out: AB8939
MDA-MB-468 = conditions: Homo sapiens, MDA-MB-468, 144 h, read-out: AB8939
MESSA = conditions: Homo sapiens, MES-SA, 144 h, read-out: AB8939
NALM-6 = conditions: Homo sapiens, NALM-6, 144 h, read-out: AB8939
REC-1 = conditions: Homo sapiens, Rec1, 144 h, read-out: AB8939
HEP-2 = conditions: Homo sapiens, HEp-2, 144 h, read-out: AB8939
HUT-78 = conditions: Homo sapiens, HuT78, 144 h, read-out: AB8939
HRT-18 = conditions: Homo sapiens, HRT-18, 144 h, read-out: AB8939
A-549 = conditions: Homo sapiens, A549, 144 h, read-out: AB8939
MOLM-14 = conditions: Homo sapiens, MOLM-14, 144 h, read-out: AB8939
CCRF-CEM = conditions: Homo sapiens, CCRF-CEM, 144 h, read-out: AB8939
PC-3 = conditions: Homo sapiens, PC-3, 144 h, read-out: AB8939
DU-145 = conditions: Homo sapiens, DU-145, 144 h, read-out: AB8939
PANC-1 = conditions: Homo sapiens, PANC-1, 144 h, read-out: AB8939
Tov21G = conditions: Homo sapiens, TOV21G, 144 h, read-out: AB8939
Karpas-299 = conditions: Homo sapiens, KARPAS-299, 144 h, read-out: AB8939
CHRF = test system: CHRF; set-up: species or system CMK; conditions: 72 h, read-out: AB8939 (IC50 nM)

For CCOCc1ccc(C)c(Nc2ncc(-c3ccc(N4CCNC4=O)cc3)o2)c1 [AB8939], which IC50 (HGC-27) is on record?
Its IC50 is 1 nM.

What about the IC50 (A4573) of the same molecule?
Its IC50 is 3 nM.

And the IC50 (U2OS)?
Its IC50 is 1 nM.

What about the IC50 (MDA-MB-468) of the same molecule?
The IC50 was 14 nM.

And the IC50 (MESSA)?
The IC50 was 7 nM.

What about the IC50 (NALM-6) of the same molecule?
Its IC50 is 1 nM.

What about the IC50 (REC-1) of the same molecule?
The IC50 was 4 nM.

And the IC50 (HEP-2)?
Its IC50 is 1 nM.

And the IC50 (HUT-78)?
The IC50 was 4 nM.

And the IC50 (HRT-18)?
The IC50 was 1 nM.

And the IC50 (A-549)?
The IC50 was 1 nM.

What about the IC50 (MOLM-14) of the same molecule?
The IC50 was 14 nM.

What about the IC50 (CCRF-CEM) of the same molecule?
Its IC50 is 1 nM.

What about the IC50 (PC-3) of the same molecule?
The IC50 was 8 nM.

And the IC50 (DU-145)?
Its IC50 is 2 nM.

And the IC50 (PANC-1)?
Its IC50 is 1 nM.

And the IC50 (Tov21G)?
Its IC50 is 8 nM.

And the IC50 (Karpas-299)?
Its IC50 is 1 nM.

And the IC50 (CHRF)?
Its IC50 is 9.7 nM.
